Measurements taken from US10065941B2, “Aminotriazine derivative and pharmaceutical composition comprising the same” (Shionogi & Co., Ltd., priority 2013, dated 2018).

The compounds below were run against human P2X3 receptor (Homo sapiens (Human), UniProt P56373) (assay: Evaluation of human P2X3 receptor inhibitory activity (Test Example 1)). Settings: C6BU-1 cell transfected with human P2X3 receptor gene, FLIPR 384.
human P2X3 receptor, sequence (P56373 whole entry): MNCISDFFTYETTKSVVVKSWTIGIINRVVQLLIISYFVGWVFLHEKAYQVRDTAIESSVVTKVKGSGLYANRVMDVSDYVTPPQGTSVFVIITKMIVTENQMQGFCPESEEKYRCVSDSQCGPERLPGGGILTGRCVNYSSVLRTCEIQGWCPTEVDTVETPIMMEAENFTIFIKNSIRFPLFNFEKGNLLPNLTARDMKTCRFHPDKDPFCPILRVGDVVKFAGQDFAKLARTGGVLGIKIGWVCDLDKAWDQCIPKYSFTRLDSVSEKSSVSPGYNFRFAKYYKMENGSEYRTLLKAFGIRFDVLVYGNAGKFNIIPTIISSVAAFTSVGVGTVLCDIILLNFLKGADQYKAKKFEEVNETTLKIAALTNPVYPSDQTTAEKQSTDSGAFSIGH
Format: cell-based
Protocol: Stably expressing cell line (C6BU-1 cell transfected with human P2X3 receptor gene (GenBank accession number Y07683) was used. The cells were seeded in a 384-well PDL-coated microtiter plate at a concentration of 3000 cells/well and cultured in the medium (8.3% fetal bovine serum, 8.3% horse serum, and 1% antibiotic and antifungal in DMEM) for one day at 37° C. under 5% carbon dioxide atmosphere. The medium was replaced with 4 μM Fluo-3-AM solution (20 mM HEPES, 137 mM NaCl, 2.7 mM KCl, 0.9 mM MgCl2, 5.0 mM CaCl2, 5.6 mM D-glucose, 2.5 mM probenecid, 0.5% BSA, and 0.04% Pluronic F-127, pH 7.5) and incubated at 37° C. under 5% dioxide carbon atmosphere for one hour. The plate was washed with washing buffer (20 mM HEPES, 137 mM NaCl, 2.7 mM KCl, 0.9 mM MgCl2, 5.0 mM CaCl2, 5.6 mM D-glucose, 2.5 mM probenecid, pH7.5), and each well was added with 20 μL of the washing buffer. The plate was placed in High-Throughput Screening System FLIPR 384 (Molecular Device Co.). Measurement of fluorescence intensity by FLIPR 384 was started, and 20 μL of DMSO solutions containing different concentrations of the test compound as prepared by dilution with dilution buffer (20 mM HEPES, 137 mM NaCl, 2.7 mM KCl, 0.9 mM MgCl2, 5.0 mM CaCl2, 5.6 mM D-glucose, 2.5 mM probenecid, 0.1% Pluronic F-127, pH7.5) were dispensed to each well through the built-in automatic dispenser. Five minutes after, 150 nM ATP solution (25 μL) prepared by dilution with the dilution buffer was dispensed through the built-in automatic dispenser, and the measurement of fluorescence intensity was continued for 4 min. For each well, the specific maximum fluorescence intensity was calculated as the ratio of the maximum fluorescence intensity after addition of the ATP solution to the fluorescence intensity at the starting of the measurement. […] The specific maximum fluorescence intensity and IC50 were calculated using Spotfire (Science & Technology Systems, Inc.)
In the case of `COC(=O)[C@@H](C)Cn1c(=O)[nH]/c(=N\c2ccc(Oc3cc(C(F)(F)F)ccn3)cc2)n(Cc2ccc(Cl)cc2)c1=O` [Compound I-082], the IC50 is reported as 112 nM. `COC(=O)[C@@H](C)Cn1c(=O)[nH]/c(=N\c2ccc(Oc3ccc(CO)cn3)cc2)n(Cc2ccc(Cl)cc2)c1=O` [Compound I-083] was tested, and the IC50 was 6 nM. `C[C@@H](Cn1c(=O)[nH]/c(=N\c2ccc(Oc3ccc(CO)cn3)cc2)n(Cc2ccc(Cl)cc2)c1=O)C(=O)O` [Compound I-084] gave an IC50 of 8 nM. With `COC(=O)C(C)(C)Cn1c(=O)[nH]/c(=N\c2ccc(Oc3cc(C(F)(F)F)ccn3)cc2)n(Cc2ccc(Cl)cc2)c1=O` [Compound I-085] the IC50 was 225 nM. `CC(C)(Cn1c(=O)[nH]/c(=N\c2ccc(Oc3cc(Cl)ccn3)cc2)n(Cc2ccc(Cl)cc2)c1=O)C(=O)O` [Compound I-086] showed an IC50 of 33 nM. In the case of `COC(=O)[C@H](C)[C@H](C)n1c(=O)[nH]/c(=N\c2ccc(Oc3cc(Cl)ccn3)cc2)n(Cc2ccc(Cl)cc2)c1=O` [Compound I-087], the IC50 is reported as 107 nM. Work on `C[C@@H](Cn1c(=O)[nH]/c(=N\c2ccc(Oc3cc(C(F)(F)F)ccn3)cc2)n(Cc2ccc(Cl)cc2)c1=O)C(=O)O` [Compound I-088] yielded an IC50 of 15 nM. With `CCOC(=O)C[C@H](O)Cn1c(=O)[nH]/c(=N\c2ccc(Oc3ccc(F)cn3)cc2)n(Cc2ccc(Cl)cc2)c1=O` [Compound I-089] the IC50 was 8 nM. Work on `O=C(O)C[C@H](O)Cn1c(=O)[nH]/c(=N\c2ccc(Oc3ccc(F)cn3)cc2)n(Cc2ccc(Cl)cc2)c1=O` [Compound I-090] yielded an IC50 of 72 nM. `C[C@@H](C(=O)O)[C@H](C)n1c(=O)[nH]/c(=N\c2ccc(Oc3cc(Cl)ccn3)cc2)n(Cc2ccc(Cl)cc2)c1=O` [Compound I-091] gave an IC50 of 10 nM. Compound `CC(C)(Cn1c(=O)[nH]/c(=N\c2ccc(Oc3cc(C(F)(F)F)ccn3)cc2)n(Cc2ccc(Cl)cc2)c1=O)C(=O)O` [Compound I-092] has an IC50 of 68 nM. With `COc1ccc(Oc2ccc(/N=c3\[nH]c(=O)n(CC(C)(C)C(=O)O)c(=O)n3Cc3ccc(Cl)cc3)cc2)nc1` [Compound I-093] the IC50 was 16 nM. `COc1ccc(Oc2ccc(/N=c3\[nH]c(=O)n([C@@H](C)[C@@H](C)C(=O)O)c(=O)n3Cc3ccc(Cl)cc3)cc2)nc1` [Compound I-094] showed an IC50 of 11 nM. `COC(=O)[C@H](C)[C@H](C)n1c(=O)[nH]/c(=N\c2ccc(Oc3ncccc3F)cc2)n(Cc2ccc(C)cc2)c1=O` [Compound I-095] was tested, and the IC50 was 9 nM. For `Cc1ccc(Cn2c(=O)n([C@@H](C)[C@@H](C)C(=O)O)c(=O)[nH]/c2=N\c2ccc(Oc3ncccc3F)cc2)cc1` [Compound I-096], the IC50 was 8 nM. For `COC(=O)[C@@H](C)Cn1c(=O)[nH]/c(=N\c2ccc(Oc3ccc(Cl)cn3)cc2)n(Cc2ccc(C)cc2)c1=O` [Compound I-097], the IC50 was 5 nM. With `COC(=O)C(C)(C)Cn1c(=O)[nH]/c(=N\c2ccc(Oc3ccc(Cl)cn3)cc2)n(Cc2ccc(C)cc2)c1=O` [Compound I-098] the IC50 was 7 nM. In the case of `COC(=O)[C@H](Cn1c(=O)[nH]/c(=N\c2ccc(Oc3ncccc3F)cc2)n(Cc2ccc(Cl)cc2)c1=O)OC` [Compound I-099], the IC50 is reported as 6 nM. For `Cc1ccc(Cn2c(=O)n(C[C@H](C)C(=O)O)c(=O)[nH]/c2=N\c2ccc(Oc3ccc(Cl)cn3)cc2)cc1` [Compound I-100], the IC50 was 4 nM. `Cc1ccc(Cn2c(=O)n(CC(C)(C)C(=O)O)c(=O)[nH]/c2=N\c2ccc(Oc3ccc(Cl)cn3)cc2)cc1` [Compound I-101] showed an IC50 of 5 nM. `CO[C@@H](Cn1c(=O)[nH]/c(=N\c2ccc(Oc3ncccc3F)cc2)n(Cc2ccc(Cl)cc2)c1=O)C(=O)O` [Compound I-102] showed an IC50 of 5 nM. In the case of `COC(=O)[C@H](C)[C@H](C)n1c(=O)[nH]/c(=N\c2ccc(Oc3ccc(F)cn3)cc2)n(Cc2ccc(C)cc2)c1=O` [Compound I-103], the IC50 is reported as 7 nM. `COC(=O)[C@H](C)[C@H](C)n1c(=O)[nH]/c(=N\c2ccc(Oc3cccc(F)n3)cc2)n(Cc2ccc(C)cc2)c1=O` [Compound I-104] was tested, and the IC50 was 5 nM. `Cc1ccc(Cn2c(=O)n([C@@H](C)[C@@H](C)C(=O)O)c(=O)[nH]/c2=N\c2ccc(Oc3ccc(F)cn3)cc2)cc1` [Compound I-105] showed an IC50 of 7 nM. With `Cc1ccc(Cn2c(=O)n([C@@H](C)[C@@H](C)C(=O)O)c(=O)[nH]/c2=N\c2ccc(Oc3cccc(F)n3)cc2)cc1` [Compound I-106] the IC50 was 6 nM. For `COC(=O)[C@H](C)[C@H](C)n1c(=O)[nH]/c(=N\c2ccc(Oc3cc(C)ccn3)cc2)n(Cc2ccc(Cl)cc2)c1=O` [Compound I-107], the IC50 was 31 nM. `COC(=O)[C@@H](C)Cn1c(=O)[nH]/c(=N\c2ccc(Oc3ccc(C)cn3)cc2)n(Cc2ccc(C)cc2)c1=O` [Compound I-108] showed an IC50 of 4 nM. With `COC(=O)[C@H](C)[C@H](C)n1c(=O)[nH]/c(=N\c2ccc(Oc3ccc(C)cn3)cc2)n(Cc2ccc(C)cc2)c1=O` [Compound I-109] the IC50 was 6 nM. With `COC(=O)C(C)(C)Cn1c(=O)[nH]/c(=N\c2ccc(Oc3ccc(C)cn3)cc2)n(Cc2ccc(C)cc2)c1=O` [Compound I-110] the IC50 was 4 nM. In the case of `Cc1ccnc(Oc2ccc(/N=c3\[nH]c(=O)n([C@@H](C)[C@@H](C)C(=O)O)c(=O)n3Cc3ccc(Cl)cc3)cc2)c1` [Compound I-111], the IC50 is reported as 9 nM. For `Cc1ccc(Cn2c(=O)n(C[C@H](C)C(=O)O)c(=O)[nH]/c2=N\c2ccc(Oc3ccc(C)cn3)cc2)cc1` [Compound I-112], the IC50 was 4 nM. For `Cc1ccc(Cn2c(=O)n([C@@H](C)[C@@H](C)C(=O)O)c(=O)[nH]/c2=N\c2ccc(Oc3ccc(C)cn3)cc2)cc1` [Compound I-113], the IC50 was 5 nM. For `Cc1ccc(Cn2c(=O)n(CC(C)(C)C(=O)O)c(=O)[nH]/c2=N\c2ccc(Oc3ccc(C)cn3)cc2)cc1` [Compound I-114], the IC50 was 6 nM. `COC(=O)[C@@H](C)Cn1c(=O)[nH]/c(=N\c2ccc(Oc3cccc(Cl)n3)cc2)n(Cc2ccc(C)cc2)c1=O` [Compound I-115] showed an IC50 of 6 nM. For `COC(=O)C(C)(C)Cn1c(=O)[nH]/c(=N\c2ccc(Oc3cccc(Cl)n3)cc2)n(Cc2ccc(C)cc2)c1=O` [Compound I-116], the IC50 was 7 nM. In the case of `Cc1ccc(Cn2c(=O)n(C[C@H](C)C(=O)O)c(=O)[nH]/c2=N\c2ccc(Oc3ncccc3Cl)cc2)cc1` [Compound I-117], the IC50 is reported as 5 nM. Compound `Cc1ccc(Cn2c(=O)n(CC(C)(C)C(=O)O)c(=O)[nH]/c2=N\c2ccc(Oc3ncccc3Cl)cc2)cc1` [Compound I-118] has an IC50 of 9 nM. With `Cc1ccc(Cn2c(=O)n(C[C@H](C)C(=O)O)c(=O)[nH]/c2=N\c2ccc(Oc3cccc(Cl)n3)cc2)cc1` [Compound I-119] the IC50 was 6 nM. `COC(=O)[C@H](C)[C@H](C)n1c(=O)[nH]/c(=N\c2ccc(Oc3ccc(Cl)cn3)cc2)n(Cc2ccc(C)cc2)c1=O` [Compound I-120] gave an IC50 of 9 nM. `COC(=O)[C@H](Cn1c(=O)[nH]/c(=N\c2ccc(Oc3ccc(F)cn3)cc2)n(Cc2ccc(Cl)cc2)c1=O)OC` [Compound I-121] was tested, and the IC50 was 6 nM. With `COC(=O)[C@H](Cn1c(=O)[nH]/c(=N\c2ccc(Oc3cccc(F)n3)cc2)n(Cc2ccc(Cl)cc2)c1=O)OC` [Compound I-122] the IC50 was 4 nM. In the case of `Cc1ccc(Cn2c(=O)n([C@@H](C)[C@@H](C)C(=O)O)c(=O)[nH]/c2=N\c2ccc(Oc3ccc(Cl)cn3)cc2)cc1` [Compound I-123], the IC50 is reported as 5 nM. Work on `CO[C@@H](Cn1c(=O)[nH]/c(=N\c2ccc(Oc3ccc(F)cn3)cc2)n(Cc2ccc(Cl)cc2)c1=O)C(=O)O` [Compound I-124] yielded an IC50 of 5 nM. Work on `CO[C@@H](Cn1c(=O)[nH]/c(=N\c2ccc(Oc3cccc(F)n3)cc2)n(Cc2ccc(Cl)cc2)c1=O)C(=O)O` [Compound I-125] yielded an IC50 of 5 nM.
